Experimental data published in patent US12662478B2, “ATF6 modulators and uses thereof” (Altos Labs, Inc., priority 2019, dated 2026).

Key:
ATF6 [1] = target: T1, ATF6 (Homo sapiens, UniProt P18850); assay: ERSE ATF6-luciferase assay in presence of Tg-induced ER stress (U2-OS ATF6 TRE-luciferase reporter cells); format: cell-based; conditions: in presence of ER stress (thapsigargin), Tg only = 100%, Table 2-3; for activity at 1 µM / activity at 10 µM: U2OS, 8 h; for activity at 1 µM / ATF6 activity @ 1 μM [%]: 1 μM test compound; for activity at 10 µM / ATF6 activity @ 10 μM [%]: 10 μM test compound; for ATF6 activity @ 1 μM [%] / ATF6 activity @ 10 μM [%]: 8 hr
T1 construct: endogenous in cells; host or cells: U2-OS (ATCC HTB-96) stably transduced with the Cignal Lenti ATF6 luc reporter (Qiagen #CLS-6031L)
T1 sequence (P18850 1-670): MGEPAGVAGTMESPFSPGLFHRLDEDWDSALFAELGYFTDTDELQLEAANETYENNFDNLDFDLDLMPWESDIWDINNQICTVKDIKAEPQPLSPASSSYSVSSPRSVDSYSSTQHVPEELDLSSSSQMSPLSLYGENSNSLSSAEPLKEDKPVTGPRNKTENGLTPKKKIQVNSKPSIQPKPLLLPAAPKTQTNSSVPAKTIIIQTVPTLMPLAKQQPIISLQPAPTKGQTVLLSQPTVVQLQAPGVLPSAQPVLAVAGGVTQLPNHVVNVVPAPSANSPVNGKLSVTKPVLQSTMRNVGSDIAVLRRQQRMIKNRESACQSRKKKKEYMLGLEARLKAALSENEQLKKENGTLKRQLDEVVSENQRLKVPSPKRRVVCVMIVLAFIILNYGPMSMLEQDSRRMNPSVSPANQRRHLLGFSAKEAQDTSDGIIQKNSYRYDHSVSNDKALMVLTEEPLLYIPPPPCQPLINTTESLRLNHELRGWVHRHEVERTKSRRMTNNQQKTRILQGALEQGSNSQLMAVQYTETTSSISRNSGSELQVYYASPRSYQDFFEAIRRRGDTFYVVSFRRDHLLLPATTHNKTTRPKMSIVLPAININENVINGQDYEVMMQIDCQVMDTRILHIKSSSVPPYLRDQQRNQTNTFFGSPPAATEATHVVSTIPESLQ
Method: (§1) To understand how exemplary compounds of the invention modulate the activity of ATF6 in absence or presence of endoplasmic reticulum (ER) stress, a Human bone osteosarcoma (U2-OS)-based TRE-luciferase reporter stable cell line was generated to determine the modulation of transcription of ATF6 target genes.
(§2) U2-OS cells were obtained from the American Type Culture Collection (ATCC HTB-96, ATCC Manassas, VA) and were cultured with growing medium containing Dulbecco's Modified Eagle's Medium (DMEM) (Cat. No.: SH30023.02, HyClone) supplemented with fetal bovine serum (FBS) 10% (Cat. No.: 16000044, Gibco) and 1% penicillin-streptomycin antibiotic cocktail (Cat. No.: SV30010, Hyclone).
(§3) Cignal Lenti ATF6 luc reporter (Qiagen #CLS-6031L) was used to produce a stable cell line in U2-OS cells (U2-OS ATF6 TRE-luciferase reporter). The lenti ATF6 reporter is a preparation of replication incompetent, VSV-g pseudotyped lentivirus particles expressing the firefly luciferase gene under the control of a minimal (m)CMV promoter and tandem repeats of the ATF6 transcriptional response element (TRE). The number of response elements as well as the intervening sequence between response elements has been experimentally optimized to maximize the signal to noise ratio.
(§4) Exemplary compounds of the invention and reference compounds were prepared from powder as 10 mM stock solutions in dimethyl sulfoxide (DMSO; Cat. No. #D2650, Sigma Aldrich) and stored at −80° C. in presence of N2 neutral atmosphere.
(§5) For the primary screening, 40,000 U2-OS ATF6 TRE-luciferase reporter cells were plated in poly-D-lysine (Cat. No.: P2636, Sigma) pre-coated white 96-well plates (Thermo Scientific Nunc #136101) with 100 μL of growing medium. Cells were incubated in humidified chambers for 24 hr.
For testing exemplary compounds in presence of ER-stress, cells were pre-treated for 30 min with 50 μL growing medium containing either vehicle (DMSO), 1 or 10 μM test compound. After this pre-incubation, 50 μL of a solution containing 0.2 μM of the ER stress-inducer thapsigargin (Tg) was added to the appropriate wells. The Tg solution also contains vehicle or test compounds at 1 or 10 μM as indicated. The final concentration of DMSO in each well was kept at 0.3%. Plates were incubated for 8 hr in humidified chambers.
After the 8 hr incubation, plates were cooled down to room temperature for 10 min prior to the luciferase assays. Luciferase reactions were performed using Luciferase Assay System (Cat. No.: E4550, Promega). Briefly, each well was washed with 100 μl of PBS 1× and, then, 20 μl of lysis reagent was added into each well. Plates were shaken for 10 min and, then, 50 μl of Luciferase Assay Reagent was added to each well. Luminescence was determined by integration of 1 s with a gain of 110 in a Synergy 4 Microplate reader. All measurements were carried out in triplicate.
The average activity determined from the wells containing vehicle only (DMSO, 0% of ATF6 activity) was used as blank and subtracted from the rest of measurements. The average activity determined from the wells containing Tg only was used as 100% of ATF6 activity. The percentage of modulation of exemplary compounds was calculated by normalizing values to potential maximal activation with Tg.
ATF6 activities of exemplary compounds at 1 and 10 μM in presence Tg-induced ER stress tested in the U2-OS ATF6 TRE-luciferase reporter cells were determined and are shown in Table 2-2 and Table 3-2.

ATF6 [2] = target: T1, ATF6; assay: ERSE ATF6-luciferase assay in absence of ER stress (U2-OS ATF6 TRE-luciferase reporter cells); format: cell-based; conditions: in absence of ER stress (no Tg), normalized to maximal activation with Tg; for activation at 1 µM / activation at 10 µM: U2OS, 8 h; for activation at 1 µM / ATF6 activity @ 1 μM-No Tg [%]: 1 μM test compound; for activation at 1 µM: Table 3-3, read-out: ATF6 activity @ 1 μM-No Tg [%]; for activation at 10 µM / ATF6 activity @ 10 μM - No Tg [%]: 10 μM test compound; for activation at 10 µM: Table 3-3, read-out: ATF6 activity @ 10 μM - No Tg [%]; for ATF6 activity @ 10 μM - No Tg [%] / ATF6 activity @ 1 μM-No Tg [%]: 8 hr, Table 3-3
Method: as §1, §2, §3, §4, §5
For testing exemplary compounds in absence of ER-stress, cells were treated for 8 hr with 100 μL growing medium containing either vehicle (DMSO), 1 or 10 μM test compound or 0.1 μM Tg. The final concentration of DMSO in each well was kept at 0.3%. Plates were incubated in humidified chambers.
After 8 hr of incubation, plates were cooled down to room temperature for 10 min prior to luciferase assays. Luciferase reactions were performed as above. Luminescence was read by integration of 1 s with a gain of 110 in a Synergy 4 Microplate reader. All measurements were carried out in triplicate.
The average activity determined from the wells containing vehicle only (DMSO, 0% of ATF6 activity) was used as blank and subtracted from the rest of measurements. The percentage of modulation of exemplary compound was calculated by normalizing values to potential maximal activation with Tg.
ATF6 activities of exemplary compounds at 1 and 10 μM in absence of Tg-induced ER stress in the U2-OS ATF6 TRE-luciferase reporter cells were determined and are shown in Table 3-2, and Table 3-3.

Row | activity at 1 µM (ATF6 [1]) [%] | activity at 10 µM (ATF6 [1]) [%] | activation at 1 µM (ATF6 [2]) [%] | activation at 10 µM (ATF6 [2]) [%] | Compound | ATF6 activity @ 1 μM [%] (ATF6 [1]) | ATF6 activity @ 10 μM - No Tg [%] (ATF6 [2]) | ATF6 activity @ 10 μM [%] (ATF6 [1]) | ATF6 activity @ 1 μM-No Tg [%] (ATF6 [2])
1 | > 150 | > 150 | 0 to 25 | 0 to 25 | O=C(Nc1cnn(CC2CCCC2)c1)c1cc(-c2ccco2)on1 [Compound 3-2, N-(1-(cyclopentylmethyl)-1H-pyrazol-4-yl)-5-(furan-2-yl)isoxazole-3-carboxamide] | – | – | – | –
2 | 125 to 150 | – | 0 to 25 | – | O=C(Nc1cnn(C2CNC2)c1)c1cc(-c2ccco2)on1 [Compound 3-3, N-(1-(azetidin-3-yl)-1H-pyrazol-4-yl)-5-(furan-2-yl)isoxazole-3-carboxamide] | – | – | – | –
3 | 125 to 150 | > 150 | 0 to 25 | 0 to 25 | O=C(Nc1cnn(C2CCNC2)c1)c1cc(-c2ccco2)on1 (centres unmarked) [Compound 3-4, 5-(furan-2-yl)-N-(1-(pyrrolidin-3-yl)-1H-pyrazol-4-yl)isoxazole-3-carboxamide] | – | – | – | –
4 | 125 to 150 | > 150 | 0 to 25 | 0 to 25 | CC(C1CCCC1)n1cc(NC(=O)c2cc(-c3ccco3)on2)cn1 (centres unmarked) [Compound 3-5, N-(1-(1-cyclopentylethyl)-1H-pyrazol-4-yl)-5-(furan-2-yl)isoxazole-3-carboxamide] | – | – | – | –
5 | 100 to 125 | 125 to 150 | 0 to 25 | 0 to 25 | O=C(Nc1cnn(Cc2c(Cl)cncc2Cl)c1)c1cc(-c2ccco2)on1 [Compound 3-6, N-(1-((3,5-dichloropyridin-4-yl)methyl)-1H-pyrazol-4-yl)-5-(furan-2-yl)isoxazole-3-carboxamide] | – | – | – | –
6 | > 150 | > 150 | 0 to 25 | 25 to 50 | O=C(Nc1cnn(C2CCOC2)c1)c1cc(-c2cccs2)on1 (centres unmarked) [Compound 3-19, N-(1-(tetrahydrofuran-3-yl)-1H-pyrazol-4-yl)-5-(thiophen-2-yl)isoxazole-3-carboxamide] | – | – | – | –
7 | – | > 150 | 0 to 25 | – | CC(C1CCOC1)n1cc(NC(=O)c2cc(-c3ccco3)on2)cn1 (centres unmarked) [Compound 3-24, 5-(furan-2-yl)-N-(1-(1-(tetrahydrofuran-3-yl)ethyl)-1H-pyrazol-4-yl)isoxazole-3-carboxamide] | + (+ refers to 100% < % activity < 125% at 1 or 10 μM) | ++ (++ refers to 25% < % activity < 50% at 1 or 10 μM test compound) | – | –
8 | – | – | – | – | CC(C1CCOC1)n1cc(NC(=O)c2cc(-c3ccco3)on2)cn1 (centres unmarked) [Compound 3-25, 5-(furan-2-yl)-N-(1-(1-(tetrahydrofuran-3-yl)ethyl)-1H-pyrazol-4-yl)isoxazole-3-carboxamide] | + (+ refers to 100% < % activity < 125% at 1 or 10 μM) | + (+ refers to 0% < % activity < 25% at 1 or 10 μM test compound) | +++ (+++ refers to >150% at 1 or 10 μM test compound) | + (+ refers to 0% < % activity < 25% at 1 or 10 μM test compound)
9 | – | – | – | – | CC(C1CCOC1)n1cc(NC(=O)c2cc(-c3ccco3)on2)cn1 (centres unmarked) [Compound 3-26, 5-(furan-2-yl)-N-(1-(1-(tetrahydrofuran-3-yl)ethyl)-1H-pyrazol-4-yl)isoxazole-3-carboxamide] | +++ (+++ refers to >150% at 1 or 10 μM test compound) | +++ (+++ refers to % activity >50 % at 1 or 10 μM test compound) | +++ (+++ refers to >150% at 1 or 10 μM test compound) | + (+ refers to 0% < % activity < 25% at 1 or 10 μM test compound)
10 | – | – | – | – | CC(C1CCOC1)n1cc(NC(=O)c2cc(-c3ccco3)on2)cn1 (centres unmarked) [Compound 3-27, 5-(furan-2-yl)-N-(1-(1-(tetrahydrofuran-3-yl)ethyl)-1H-pyrazol-4-yl)isoxazole-3-carboxamide] | + (+ refers to 100% < % activity < 125% at 1 or 10 μM) | ++ (++ refers to 25% < % activity < 50% at 1 or 10 μM test compound) | +++ (+++ refers to >150% at 1 or 10 μM test compound) | + (+ refers to 0% < % activity < 25% at 1 or 10 μM test compound)
